# Measured values: PMC9329436, “Optimization of the 4-anilinoquin(az)oline scaffold as epidermal growth factor receptor (EGFR) inhibitors for chordoma utilizing a toxicology profiling assay platform” (Scientific Reports, 2022)
# Key:
# U-CH1 chordoma cell line = assay: Cell viability assay (alamarBlue, 72 h), U-CH1; type: cell-based, human; details: n = 4, 72 h
# Description: (§1) Chordoma cell lines were cultured as described previously[10],[12],[33],[34]. Briefly, U-CH1 and U-CH2 cell lines were cultured in 4:1 IMDM:RPMI medium supplemented with 10% fetal bovine serum (FBS) and 1% penicillin/streptomycin in gel-coated flasks. […] CH22, UM-Chor1, U-CH12, and U-CH7 cell lines were cultured in RPMI medium supplemented with 10% FBS and 1% penicillin/streptomycin. The cell lines all undergo regular mycoplasma screening.
# (§2) Cells were seeded in 384 well plates and were treated with test compound in quadruplicate 24 h after plating. Cell viability was assessed at 72 h using alamarBlue (ThermoFisher, USA). […] IC50 values were determined by four-parameter nonlinear regression analyses using GraphPad Prism™ version 8 software (San Diego, CA).
# U-CH2 chordoma cell line = assay: Cell viability assay (alamarBlue, 72 h), U-CH2; type: cell-based, human; details: n = 4, 72 h
# Description: as §1, §2
# HL60 cells = assay: AsedaSciences SYSTEMETRIC Cell Health Screen (flow cytometry toxicity profiling); details: HL60, 4 h, 5 nM–100 µM; for CC: Cell Cycle score / CM: Cell morphology score / CMI: Cell membrane integrity score / GSH: Glutathione score / MMP: Mitochondrial membrane depolarization score / NMI1: Nuclear membrane integrity 1 score / NMI2: Nuclear membrane integrity 2 score / ROS: Reactive superoxide species score: probability 0–1, n = 2; for CHI: Cell Health Index: probability (0–1) of high-risk class, n = 2
# Description: To prioritize further optimization, in addition to cellular potency, we utilized the AsedaSciences® […]® Cell Health Screen. This live cell flow cytometry (FC) screen was developed to assess human safety risk for candidate pharmaceutical small molecules at the early hit-to-lead stage of development. The screen works by estimating the risk using a supervised machine learning (ML) classifier to assess a multiparametric cellular stress phenotype, produced by the test compound, relative to a training set of known compounds (Table S1). This screen has been designed for early pipeline risk estimation regardless of pharmaceutical class/disease type, so it uses HL60 as the reporter cell line.
# The ML classifier was trained with 300 historically known compounds (on market or withdrawn drugs, research compounds, etc.), which were divided into two outcome classes based upon literature, clinical trials, and market histories where applicable. This external curation informed an outcome of “high-risk” or “low-risk”. All 300 compounds were also processed through the automated FC screen, populating each of the two classes with frequency distributions of empirical cell-based phenotypes.
# To estimate human safety risk for an unknown compound, the ML classifier assesses the similarity of the test compound’s cell-based phenotype to the distributions of phenotypes in the two outcome classes. […] Phenotypes are derived from twelve FC detection parameters, including light scatter and a series of fluorescent physiological reporter dyes, that track cell stress-related endpoints.
# To produce the Cell Health Index, the ML classifier uses all twelve FC parameters simultaneously in a multidimensional logistic regression model, so the CHI contains the most predictive power. In addition to the Cell Health Index, Table 4 also reports probability scores for eight cell stress-related endpoints. These scores are produced individually by passing information to the ML classifier relating to parameters that inform that endpoint. For example, to produce the cell morphology (CM) score, the ML classifier only uses the FC detection parameters for forward scatter (informing change in cell diameter) and side scatter (informing change in optical granularity of the cell) to inform the model. Together, these eight endpoints provide a “biological fingerprint”, allowing assessment of the degree to which SAR series members behave differently across endpoints.
# In a 384-well platform, HL60 cells were exposed to a 10-step, 3 × dilution series of each test compound (5 nM–100 µM) for 4 h at 37 °C with 5% CO2. Each dilution series was screened in duplicate, occupying a total of 20 wells, allowing 16 test compounds to be assayed per plate. Each row contained one positive and one negative control well, for a total of 16 replicate positive/negative control pairs on each assay plate. Compound formatting, cell deposition, and dye application were performed robotically so that final assay conditions comprised 100,000 cells in a 40 µL volume. After the 4 h compound exposure, cells were immediately stained with a panel of fluorescent dyes that report physiological signatures of both mitochondrial dysfunction and gross cell stress. Fluorescence and forward/side-scatter data were collected using automated FC with no gating. FC data are processed by an automated algorithm for producing quality control measures and ML classification of compound phenotypes. • 2. HL60 cell culture production
# HL60 cells were produced as suspension cultures in glass 850 cm^2 roller bottles with vented caps, at 1 RPM, 5% CO2, and 37 °C. […] Culture density was maintained at or below 1 × 10^6 cells/mL.
SMILES,IC50 (U-CH1 chordoma cell line) [µM],IC50 (U-CH2 chordoma cell line) [µM],CC: Cell Cycle score (HL60 cells),CM: Cell morphology score (HL60 cells),CMI: Cell membrane integrity score (HL60 cells),GSH: Glutathione score (HL60 cells),MMP: Mitochondrial membrane depolarization score (HL60 cells),NMI1: Nuclear membrane integrity 1 score (HL60 cells),NMI2: Nuclear membrane integrity 2 score (HL60 cells),ROS: Reactive superoxide species score (HL60 cells),CHI: Cell Health Index (HL60 cells)
C#Cc1cccc(Nc2ncnc3ccc(C)cc23)c1 [Compound 4],15,> 100,0.65,0.0051,0.21,0.12,0.49,0.059,0.17,0.20,0.31
C#Cc1cccc(Nc2ncnc3ccc(F)cc23)c1 [Compound 5],19,> 100,0.34,0.0041,0.091,0.087,0.26,0.082,0.11,0.34,0.26
C#Cc1cccc(Nc2ncnc3ccc(Cl)cc23)c1 [Compound 7],25,> 100,0.10,0.0047,0.030,0.011,0.015,0.13,0.053,0.20,0.16
C#Cc1cccc(Nc2ncnc3ccc(Br)cc23)c1 [Compound 8],16,> 100,0.087,0.0037,0.0024,0.05,0.11,0.13,0.020,0.083,0.19
C#Cc1cccc(Nc2ncnc3ccc(C(F)(F)F)cc23)c1 [Compound 10],21,42,0.59,0.058,0.045,0.004,0.74,0.21,0.19,0.77,0.40
C#Cc1cccc(Nc2ncnc3cc(F)ccc23)c1 [Compound 12],41,> 100,0.59,0.058,0.045,0.004,0.74,0.21,0.19,0.77,0.40
C#Cc1cccc(Nc2ncnc3cc(Br)ccc23)c1 [Compound 14],54,> 100,0.74,0.024,0.41,0.010,0.17,0.033,0.3,0.86,0.33
